Measurements reported in ChEMBL document CHEMBL1201862, “PubChem BioAssay data set” (2004).
Counter-ions that a name gives are not always drawn. Active and inactive are the calls of the source. Cut-off read from the data, not from the text of the source, for most assays here: actives have a measured EC50 and inactives only a lower limit.

Columns and labels:
[1] = insulin promoter down-regulators in MIN6 cells, imaging, high-content screening, mouse beta cells (AID 1628); assay type: functional
BJ [2] = experiment: cytotoxicity toward BJ-TERT fibroblasts, dose response, cell-based, RAS-independent, luminescence (AID 1933); assay type: functional; conditions: Homo sapiens
[3] = cytotoxicity in MIN6 insulinoma cells, dose response, cytotoxicity control, cell-based, mouse insulinoma (AID 2122); assay type: functional;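 note: confirmatory high-throughput counterscreen run to flag cytotoxic compounds; mouse MIN-6 beta cells carrying an insulin promoter eGFP reporter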
BJ [4] = experiment: cells; assay type: functional, cell-based; conditions: Homo sapiens
BJ [5] = experiment: cytotoxicity toward BJ-TERT-LT-ST fibroblasts, dose response, cell-based, RAS-independent, luminescence (AID 1935); assay type: functional; conditions: Homo sapiens;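 note: BJ fibroblasts immortalized with TERT plus LT and ST oncogenes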
[6] = cytotoxicity toward DRD oncogenic fibroblasts, dose response, cell-based, non-viral oncogenic, luminescence (AID 1934); assay type: functional; conditions: Homo sapiens
BJ [7] = experiment: cytotoxicity toward Ras-transformed BJeLR fibroblasts, dose response, cell-based, alamar blue fluorescence, cherrypicked samples (AID 2631); assay type: functional; conditions: Homo sapiens;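 note: confirmatory dose-response assay in RAS-dependent BJ fibroblasts engineered with TERT, LT and ST, with cytotoxicity read by fluorescence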
INS1 = experiment: beta cell apoptosis inhibitors, cytokine rescue, dose response, luminescence, retest (AID 449756); assay type: functional, cell-based; conditions: Rattus norvegicus;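 note: cell death triggered by IL-1 beta plus TNF-alpha plus IFN-gamma mixture; protective hits raise ATP signal compared with cytokine alone wells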
[8] = NIH-3T3 fibroblast cytotoxicity, dose response, cytotoxicity control, cell-based, fluorescence, Alamar Blue, secondary assay (AID 2327); assay type: functional;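 note: NIH-3T3 mouse fibroblasts cultured with fluconazole at 8 µg/mL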
[9] = inhibitors of firefly luciferase expression or activity, dose response, H4 neuroglioma cells, luminescence (AID 1990); assay type: functional, cell-based
cells [10] = assay type: functional, cell-based
[11] = Luminescence Cell-Based Dose Response HTS to Identify Inhibitors of 5'UTR Stem-Loop Driven Prion Protein mRNA Translation in H4 Neuroglioblastoma Cells. [Related pubchem assays: 1827 (Project Summary), 1813 (Primary HTS)]; assay type: functional
[12] = inhibitors of SNCA 5'UTR-driven reporter translation, confirmation, H4 neuroglioma cells, luminescence (AID 1988); assay type: functional, cell-based
cells [13] = assay type: functional, cell-based; remark: listed apart in the source
HEK293 = experiment: inhibitors of LMP1-driven NF-kB reporter, dose response, cell-based, HEK293, luciferase, cherry-pick (AID 588343); assay type: functional; conditions: Homo sapiens
[14] = target: T1, Long-chain-fatty-acid--AMP ligase FadD28 (Mycobacterium tuberculosis, UniProt P9WQ59); experiment: Fluorescence polarization aasay to screen for inhibitors that compete for the binding of FadD28 to a bisubstrate Measured in Biochemical System Using Plate Reader - 2147-01_Inhibitor_Dose_CherryPick_Activity.; assay type: functional, Mycobacterium tuberculosis H37Rv
T1 sequence (P9WQ59 whole entry): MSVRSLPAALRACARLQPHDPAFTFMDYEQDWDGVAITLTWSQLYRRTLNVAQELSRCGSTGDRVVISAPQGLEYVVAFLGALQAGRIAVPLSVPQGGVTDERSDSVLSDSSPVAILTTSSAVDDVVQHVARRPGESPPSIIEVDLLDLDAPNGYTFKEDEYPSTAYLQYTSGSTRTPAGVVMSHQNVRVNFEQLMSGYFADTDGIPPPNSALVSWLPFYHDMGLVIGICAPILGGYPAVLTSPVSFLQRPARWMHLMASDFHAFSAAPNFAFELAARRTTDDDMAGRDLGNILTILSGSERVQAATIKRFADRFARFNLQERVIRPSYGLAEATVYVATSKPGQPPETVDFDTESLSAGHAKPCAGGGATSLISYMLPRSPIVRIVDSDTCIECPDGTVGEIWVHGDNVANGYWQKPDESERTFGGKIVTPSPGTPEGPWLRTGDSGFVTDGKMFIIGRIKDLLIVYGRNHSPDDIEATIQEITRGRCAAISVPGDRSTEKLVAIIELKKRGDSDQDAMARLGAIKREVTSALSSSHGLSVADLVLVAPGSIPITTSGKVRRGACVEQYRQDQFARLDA

[15] = target: T2, Heat shock factor protein 1 (Mus musculus, UniProt P38532); experiment: HSF1 potentiators in luciferase reporter cells, confirmation, cell-based, NIH3T3, luminescence, dose retest (AID 435004); assay type: functional;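 note: stress induced by proteasome inhibitor MG132 added 30 min after compound; luciferase reporter driven by HSF1 response element in NIH3T3 cells; actives raise luminescence as potentiators of the MG132 stress response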
T2 sequence (P38532 whole entry): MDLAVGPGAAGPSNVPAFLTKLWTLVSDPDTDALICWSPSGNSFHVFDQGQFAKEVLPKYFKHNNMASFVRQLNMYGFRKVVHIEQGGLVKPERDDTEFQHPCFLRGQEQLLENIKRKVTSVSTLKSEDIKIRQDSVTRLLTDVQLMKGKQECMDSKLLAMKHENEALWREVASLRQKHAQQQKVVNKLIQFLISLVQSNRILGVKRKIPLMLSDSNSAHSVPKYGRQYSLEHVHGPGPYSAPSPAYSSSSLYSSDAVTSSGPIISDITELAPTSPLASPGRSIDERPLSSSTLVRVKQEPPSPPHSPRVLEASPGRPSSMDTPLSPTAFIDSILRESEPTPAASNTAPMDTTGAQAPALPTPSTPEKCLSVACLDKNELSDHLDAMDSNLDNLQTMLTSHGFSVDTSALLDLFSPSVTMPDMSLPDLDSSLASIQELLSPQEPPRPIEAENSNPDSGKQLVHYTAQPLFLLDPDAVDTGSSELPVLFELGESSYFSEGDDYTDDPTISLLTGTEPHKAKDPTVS

[16] = target: Voltage-gated inwardly rectifying potassium channel KCNH2 (Homo sapiens, UniProt Q12809); conditions: Potency;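 note: confirmatory quantitative high-throughput screen measuring inhibition of hERG channel activity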
Chain of Voltage-gated inwardly rectifying potassium channel KCNH2 (Q12809 whole entry): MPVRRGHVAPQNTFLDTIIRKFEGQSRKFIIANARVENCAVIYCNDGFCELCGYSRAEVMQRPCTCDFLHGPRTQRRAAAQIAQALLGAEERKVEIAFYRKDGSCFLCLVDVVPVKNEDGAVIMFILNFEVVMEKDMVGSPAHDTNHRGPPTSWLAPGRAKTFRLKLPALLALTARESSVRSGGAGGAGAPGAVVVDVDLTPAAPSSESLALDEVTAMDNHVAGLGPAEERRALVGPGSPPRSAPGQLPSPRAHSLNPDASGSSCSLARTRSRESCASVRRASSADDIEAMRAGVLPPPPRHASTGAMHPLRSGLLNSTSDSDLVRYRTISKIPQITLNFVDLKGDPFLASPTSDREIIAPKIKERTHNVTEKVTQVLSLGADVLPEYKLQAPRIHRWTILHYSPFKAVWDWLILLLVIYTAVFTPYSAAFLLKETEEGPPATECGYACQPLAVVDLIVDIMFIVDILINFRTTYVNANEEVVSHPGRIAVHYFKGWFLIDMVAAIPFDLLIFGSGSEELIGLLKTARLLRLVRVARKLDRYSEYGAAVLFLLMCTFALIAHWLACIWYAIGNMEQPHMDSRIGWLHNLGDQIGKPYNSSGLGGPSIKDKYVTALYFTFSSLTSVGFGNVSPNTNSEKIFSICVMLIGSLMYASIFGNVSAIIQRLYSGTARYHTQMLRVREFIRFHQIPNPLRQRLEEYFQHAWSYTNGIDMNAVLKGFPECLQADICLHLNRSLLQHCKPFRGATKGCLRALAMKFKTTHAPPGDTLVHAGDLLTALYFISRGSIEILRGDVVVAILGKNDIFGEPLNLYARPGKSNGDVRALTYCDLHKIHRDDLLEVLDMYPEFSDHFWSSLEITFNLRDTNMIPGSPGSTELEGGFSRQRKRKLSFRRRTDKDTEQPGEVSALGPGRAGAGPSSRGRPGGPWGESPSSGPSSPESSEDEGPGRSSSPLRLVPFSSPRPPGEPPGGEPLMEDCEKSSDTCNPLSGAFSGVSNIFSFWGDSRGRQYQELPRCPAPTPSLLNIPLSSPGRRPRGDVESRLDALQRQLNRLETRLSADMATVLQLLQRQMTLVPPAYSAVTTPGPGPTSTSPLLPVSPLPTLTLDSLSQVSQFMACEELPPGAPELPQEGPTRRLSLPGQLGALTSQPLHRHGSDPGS

Row | Compound | IC50 [1] | EC50 (BJ [2]) | IC50 [3] | EC50 (BJ [4]) | EC50 (BJ [5]) | EC50 [6] | EC50 (BJ [7]) | AC50 (INS1) | EC50 [8] | EC50 [9] | EC50 (cells [10]) | EC50 [11] | EC50 [12] | EC50 (cells [13]) | AC50 (HEK293) | AC50 [14] | EC50 [15] | AC50 [16]
1 | CC(Oc1ccc(Cl)cc1Cl)c1nc(-c2ccc(NC(=O)c3cccnc3)cc2)no1 (centres undefined) | 0.88 µM (active) | > 150 µM (not active) | 0.928 µM (active) | 3.32 µM (active) | > 150 µM (not active) | 25.4 µM (active) | > 66.7 µM (inactive) | 0.61 µM (active) |  |  |  |  |  |  |  |  |  | 
2 | CCN(CC)c1ccc(/C=N/NC(=O)c2ccc3[nH]cnc3c2)c(O)c1 |  | 4.19 µM (active) |  | 7.44 µM (inconclusive) | 9.27 µM (active) | 4.54 µM (active) | 0.944 µM (active) | 0.827 µM (active) | 6.84 µM (active) | 3.35 µM (active) | 8.39 µM (active) | 4.29 µM (active) | 7.51 µM (active) | > 350 µM (not active) | 7.07 µM (active) | 13.1 µM (active) |  | 
3 | COc1cccc(OC)c1OCCNCC1COc2ccccc2O1 (centres undefined) [2- (2,6-DIMETHOXYPHENOXYETHYL)AMINOMETHYL-1,4-BENZODIOXANE HYDROCHLORIDE (WB 4101)] |  |  |  |  |  |  |  |  |  |  |  |  |  |  |  |  | > 260 µM (inactive) | 11.2 µM (inconclusive)
